Test results reported in patent publication US9944660B2, “Tricyclic benzoxaboroles as antibacterial agents” (Daiichi Sankyo Company, Limited, priority 2014, dated 2018).

Assays:
[1] = Oral bioavailability (BA) in mouse; format: in vivo; conditions: female, plasma, 8.5 mg/kg body weight, Swiss mice, 8.5 mg/kg oral, 4.25 mg/kg intravenous, read-out: oral absolute bioavailability
Description: (Test Example 8b) Oral Bioavailability (BA) in Mouse
To Female Swiss mouse (23±3 g) test compound was administered as 0.5 mg/mL intravenous and 1 mg/mL oral solution in milli-Q water (pH 5.0). The final dose was 4.25 mg/kg body weight (intravenous) and 8.5 mg/kg body weight (oral route). Plasma samples analyzed for test compound using LC-MS/MS method. Estimation of pharmacokinetic parameters was done by using moment analysis. WinNonlin software 6.1 (Pharsight) was utilized for the estimation of PK parameters and oral bioavailability.

[2] = test system: E. coli ATCC 25922; test: Bacterial susceptibility testing (MIC, CLSI microdilution); format: cell-based; conditions: Escherichia coli, ATCC25922
Description: (§1) (Test Example 2) Method of Testing Susceptibility of Bacterial [MICs]
(§2) Minimum inhibitory concentration (MIC) were determined as recommended by the Clinical and Laboratory Standards Institute (CLSI) in 2010 (M100-520), in 2011 (M100-521), 2012 (M100-522) and in 2013 (M100-523) with minor modifications.
(§3) In short, bacterial cultures were streaked on Muller Hinton Agar plates and incubated at 35±2° C. for about 18 to 20 hours. Following day colony suspension was prepared in saline and adjusted to 0.5 McFarland using Densitometer. This culture was further diluted 100 fold in Muller Hinton Broth or M9 minimal media or pooled human urine and used for MIC determination. The test compounds were prepared in dimthylesulfoxide (DMSO) at concentration of 1 mg/mL, and diluted to 32 μg/mL in respective media. Further two fold serial dilution were prepared in 96 well microtiter plates. 50 μL of diluted cultures were added to all wells and incubated at 35±2° C. for about 16 to 20 hours.

[3] = test system: K. pneumoniae ATCC 13883; test: as above; format: cell-based; conditions: Klebsiella pneumoniae, ATCC13883
Description: as §1, §2, §3

[4] = test system: P. aeruginosa; test: as above; format: cell-based; conditions: Pseudomonas aeruginosa, strain not stated, read-out: MIC against P. aeruginosa
Description: as §1, §2, §3

[5] = test system: P. aeruginosa PAO-1; test: In vivo efficacy in P. aeruginosa PAO1 murine lung infection model; conditions: subcutaneous 75 mg/kg twice daily
Description: (Test Example 3c) In Vivo Efficacy in P. aeruginosa PAO1 Murine Lung Infection Model Overnight grown culture of P. aeruginosa PAO-1 on TSA agar was inoculated in Brain heart infusion broth (BHI, DIFCO) and grown in a shaker incubator with shaking at 110 rpm at 35±2° C. overnight. The culture was subcultured in 50 mL of BHI and incubated again at 110 rpm at 35±2° C. on a shaker incubator till the optical density of the culture reaches 0.5-0.7 units. For infection, animals were weighed, randomized and anesthetized by giving isofluorane. Under anesthesia the animals were infected with 50 μL of the inoculum prepared as above by intranasal route. The test compounds were administered at 75 mg/kg body weight by subcutaneous route after 1 hour and 6 hours post infection. Animals were euthanized, lungs were removed aseptically and homogenized in PBS (3 mL) and serial dilutions plated on TSA plates 24 hours post infection.

[6] = Oral bioavailability (BA) in rats; format: in vivo; conditions: male, rat, plasma, 8.5 mg/kg body weight; Sprague Dawley Rats, 8.5 mg/kg oral, 4.25 mg/kg intravenous; read-out: oral absolute bioavailability
Description: (Test Example 8a) Oral Bioavailability (BA) in Rats
To Male Sprague Dawley Rats (215±10 g) test compound was administered as 2.0 mg/mL solution in milli-Q water (pH 5.0) by intravenous and oral route. The final dose was 4.25 mg/kg body weight (intravenous) or 8.5 mg/kg body weight (oral). Plasma samples analyzed for test compound using LC-MS/MS method. Estimation of pharmacokinetic parameters was done by using moment analysis. WinNonlin software 6.1 (Pharsight) was utilized for the estimation of PK parameters and oral bioavailability.

Work on `Cl.NC[C@H]1OB(O)c2ccc3c(c21)OCO3` (single isomer, unassigned) [Compound 6] yielded a bioavailability [1] of 62%, an MIC [2] of 1 µg/mL and an MIC [3] of 1 µg/mL. For the same compound, the MIC [4] was 2 µg/mL, the “log reduction in cfu from 24 hours untreated control” value [5] was 4.04 log and the “log reduction in cfu's from baseline” value [5] was 2.58 log. The bioavailability [6] was 72%.
